Assay results published in patent US12221649B2 (priority 2018, dated 2025).

How the values were obtained:
[1] = target: T1, carboxypeptidase A (CPA) (Homo sapiens, UniProt P15085); assay: Enzyme assay of Compound A and CPA (fluorescence increase); type: biochemical; details: 37° C.
T1 sequence (P15085 111-419): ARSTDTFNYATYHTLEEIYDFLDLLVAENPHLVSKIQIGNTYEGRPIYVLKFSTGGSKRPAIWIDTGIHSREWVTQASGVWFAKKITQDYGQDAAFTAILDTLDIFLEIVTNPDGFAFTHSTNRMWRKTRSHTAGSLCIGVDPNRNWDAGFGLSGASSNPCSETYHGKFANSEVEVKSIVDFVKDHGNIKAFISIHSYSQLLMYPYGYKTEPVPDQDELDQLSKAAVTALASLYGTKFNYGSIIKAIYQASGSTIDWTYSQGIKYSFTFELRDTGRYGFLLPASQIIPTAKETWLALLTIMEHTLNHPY
Procedure: An enzyme assay using the synthesized Compounds A, B was performed.
(§1) FIG. 2(a) illustrates a reaction scheme of Compound A and CPA. In FIG. 2(b), 10 μM Compound A in PBS (-) was incubated at 37° C. with 5 ng CPA activated by 1.5 μg trypsin in the presence or absence of 100 μM inhibitor ((S)-benzylsuccinic acid) containing 0.1% DMSO as a co-solvent. Ex/Em=355/460 nm. n=4. (In FIG. 2, Try represents trypsin, and SBSA represents (S)-benzylsuccinic acid.)

[2] = target: PSMA (Homo sapiens, UniProt Q04609); assay: Enzyme assay of probes and PSMA (fluorescence increase); type: biochemical; details: 10 μM probe in TBS buffer, 37° C., 22 ng PSMA, Ex/Em=355/460 nm
Procedure: An enzyme assay was performed using the synthesized 4MU-tSoul-AE and PSMA.
An enzyme assay was performed using the synthesized 4MU-tSoul-GE and PSMA.
Here, FIG. 9(a) illustrates a reaction scheme of 4MU-tSoul-GE and PSMA. […] Ex/Em=355/460 nm. n=3.

[3] = target: T2, trypsin (Bos taurus, UniProt P00760); assay: Compound A with only trypsin added (control condition of the CPA assay); type: biochemical; details: 10 μM Compound A, no CPA
T2 construct: gene PRSS1
T2 sequence (P00760 24-246): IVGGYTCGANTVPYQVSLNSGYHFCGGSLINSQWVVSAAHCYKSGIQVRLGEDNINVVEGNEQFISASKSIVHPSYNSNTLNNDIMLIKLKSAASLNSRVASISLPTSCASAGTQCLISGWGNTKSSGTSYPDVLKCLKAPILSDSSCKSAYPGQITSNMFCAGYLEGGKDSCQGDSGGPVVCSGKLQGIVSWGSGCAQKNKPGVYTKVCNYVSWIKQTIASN
Procedure: (§2) An enzyme assay using the synthesized Compounds A, B was performed. As a result, the fluorescence of Compounds A and B was increased by incubation with carboxypeptidase A (CPA) and carboxypeptidase B (CPB) which were the respective target enzymes, and the increase in fluorescence was suppressed by addition of (S)-benzylsuccinic acid and MGTA which were the respective inhibitors.
as §1

[4] = type: physicochemical; details: for fluorescence change in the absence of enzyme (non-enzymatic degradation): 10 μM probe in PBS(-), pH 7.4, 37° C., no enzyme
Procedure: as §2
(§3) FIG. 4(a) illustrates a reaction scheme of Compound C and CPB. In FIG. 4(b), 10 μM Compound C in PBS (-) was incubated at 37° C. in the presence or absence of 5 ng CPB containing 0.1% DMSO as a co-solvent. Ex/Em=355/460 nm. n=4. […] 10 μM Compound A or Compound C in PBS (-) was incubated at 37° C. in the absence of CPB. Ex/Em=355/460 nm. n=4.
(§4) Next, reactivity with CPB and the stability in a buffer solution having a pH of 7.4 were examined. As a result, it became clear that while HMRef-tSoul-AR caused a fluorescence increase of 3320 times by reaction with CPB, HMRef-tSoul-AR was stable for at least about 1 hour in the absence of enzyme. The results are illustrated in FIG. 5.
(§5) FIG. 5(a) illustrates a reaction scheme of HMRef-tSoul-AR and CPB. FIG. 5(b) illustrates the fluorescence increase of 1 μM HMRef-tSoul-AR in PBS (-) incubated with 30 μg CPB containing 0.1% DMSO as a co-solvent. Incubation was performed at 25° C. The excitation wavelength was 498 nm. FIG. 5(c) illustrates an absorption change of 1 μM HMRef-tSoul-AR in PBS (-) at 25° C. for 50 minutes.

[5] = target: T3, carboxypeptidase B (CPB) (Homo sapiens, UniProt P15086); type: biochemical; details: for fluorescence change on incubation with CPB: 10 μM probe in PBS(-), Ex/Em=355/460 nm
T3 sequence (P15086 111-417): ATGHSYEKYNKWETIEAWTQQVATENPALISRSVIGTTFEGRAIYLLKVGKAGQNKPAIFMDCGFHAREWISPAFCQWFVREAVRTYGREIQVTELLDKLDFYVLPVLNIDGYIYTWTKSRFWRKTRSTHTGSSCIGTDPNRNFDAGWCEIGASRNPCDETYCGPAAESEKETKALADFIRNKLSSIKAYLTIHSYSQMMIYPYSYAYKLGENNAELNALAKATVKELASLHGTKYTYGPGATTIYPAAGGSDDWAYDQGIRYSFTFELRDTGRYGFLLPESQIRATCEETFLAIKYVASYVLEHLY
Procedure: as §2
FIG. 3(a) illustrates a reaction scheme of Compound B and CPB. In FIG. 3(b), 10 μM Compound B in PBS (-) was incubated at 37° C. with 5 ng CPB in the presence or absence of 100 μM inhibitor (MGTA) containing 0.1% DMSO as a co-solvent. Ex/Em=355/460 nm. n=4.
An enzyme assay using the synthesized Compound C and CPB was performed.
as §3, §4, §5

[6] = target: T4, CPB (Homo sapiens, UniProt P15086); assay: Enzyme reaction rate parameters with CPB (fluorescence method, plate reader); type: biochemical; details: CPB 5 ng, 37° C., PBS pH 7.4, 20 μL, apparent
T4 sequence (P15086 111-417): T3 sequence (P15086 111-417)
Procedure: (§6) In addition, an enzyme reaction rate parameter was calculated.
(§7) All experiments were performed at 37° C. in a total volume of 20 μL of phosphate buffered saline (pH 7.4) containing DMSO as a co-solvent. 5 ng of CPB or CPM was added. An enzyme reaction initial rate was calculated from a fluorescence change at 535 nm using a plate reader (n=3). The excitation wavelength was 485 nm.

[7] = target: T5, carboxypeptidase M (CPM) (Homo sapiens, UniProt P14384); assay: Enzyme reaction rate parameters with CPM (fluorescence method, plate reader); type: biochemical
T5 sequence (P14384 18-423): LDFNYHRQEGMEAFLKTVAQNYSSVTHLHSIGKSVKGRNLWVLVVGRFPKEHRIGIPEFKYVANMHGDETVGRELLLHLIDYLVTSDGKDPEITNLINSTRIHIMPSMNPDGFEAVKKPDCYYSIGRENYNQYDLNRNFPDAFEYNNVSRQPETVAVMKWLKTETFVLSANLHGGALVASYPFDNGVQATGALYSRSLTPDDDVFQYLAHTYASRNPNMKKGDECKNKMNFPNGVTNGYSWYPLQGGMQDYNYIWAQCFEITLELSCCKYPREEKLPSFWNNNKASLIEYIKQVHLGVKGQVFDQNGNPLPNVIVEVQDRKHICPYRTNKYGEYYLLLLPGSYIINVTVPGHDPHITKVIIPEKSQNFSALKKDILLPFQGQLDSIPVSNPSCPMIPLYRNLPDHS
Procedure: as §6, §7

[8] = test system: MDCK cells expressing CPM; assay: Live imaging of CPM activity in MDCK cells; type: cell-based
Procedure: Live imaging of the carboxypeptidase activity in living cells was performed using HMRef-tSoul-AR synthesized above. […] Since it has been reported that CPM is expressed as an active form on a cell membrane unlike CPB, addition of trypsin or the like is unnecessary.
Here, FIGS. 6(a) and 6(b) illustrate fluorescence images of the MDCK cells containing 10 μM HMRef-tSoul-AR in HBSS in the presence (a) or absence (b) of 10 μM MGTA. Ex/Em=488/500-550 nm laser output 5%, PMT 600 V. 10 μM Hoechst 33342 was co-incubated for focal plane correction. For imaging of a Hoechst signal, Ex/Em=405/430-460 nm. Laser output 3%, PMT 1000 V, SP8.
Here, FIG. 7 illustrates results of UPLC analysis of a medium of the MDCK cells incubated with 20 μM HMRef-tSoul-AR in the presence or absence of 10 μM MGTA. The MDCK cells were incubated with 20 μM HMRef-tSoul-AR in HBSS at 37° C. for 20 hours in the presence or absence of 10 μM MGTA. Elution was performed with a linear gradient of C/D=95/5 to 5/95 in 4 minutes and detected at 254 nm.

[9] = test system: basic carboxypeptidase activity in breast cancer tissue; assay: Fluorescence imaging of clinical specimens derived from breast cancer patients; design: species or system human
Procedure: Four specimens (IDC: invasive ductal carcinoma, 3 cases; DCIS: ductal carcinoma in situ, 1 case) derived from breast cancer patients were subjected to fluorescence imaging by applying HMRef-tSoul-AR to a tumor site and a normal site by the following procedure (FIG. 10).
HMRef-tSoul-AR was dissolved in PBS so as to have a final concentration of 50 μM (containing 1% DMSO), and applied to clinical specimens from breast cancer patients in the presence and absence of 100 μM MGTA. A fluorescence image was captured on Maestro in vivo imaging system (PerkinElmer, Inc., MA, USA), a 455 nm (435-480 nm) band pass filter was used as an excitation light filter, and a 490 nm long pass filter was used as a fluorescence filter.
When an increase was observed, in order to examine whether or not the increase was derived from basic carboxypeptidase activity, a group to which the inhibitor MGTA was added was also examined at the same time.

[10] = CPM 5 ng, 37° C., PBS pH 7.4, 20 μL, apparent

Chain of PSMA (Q04609 whole entry): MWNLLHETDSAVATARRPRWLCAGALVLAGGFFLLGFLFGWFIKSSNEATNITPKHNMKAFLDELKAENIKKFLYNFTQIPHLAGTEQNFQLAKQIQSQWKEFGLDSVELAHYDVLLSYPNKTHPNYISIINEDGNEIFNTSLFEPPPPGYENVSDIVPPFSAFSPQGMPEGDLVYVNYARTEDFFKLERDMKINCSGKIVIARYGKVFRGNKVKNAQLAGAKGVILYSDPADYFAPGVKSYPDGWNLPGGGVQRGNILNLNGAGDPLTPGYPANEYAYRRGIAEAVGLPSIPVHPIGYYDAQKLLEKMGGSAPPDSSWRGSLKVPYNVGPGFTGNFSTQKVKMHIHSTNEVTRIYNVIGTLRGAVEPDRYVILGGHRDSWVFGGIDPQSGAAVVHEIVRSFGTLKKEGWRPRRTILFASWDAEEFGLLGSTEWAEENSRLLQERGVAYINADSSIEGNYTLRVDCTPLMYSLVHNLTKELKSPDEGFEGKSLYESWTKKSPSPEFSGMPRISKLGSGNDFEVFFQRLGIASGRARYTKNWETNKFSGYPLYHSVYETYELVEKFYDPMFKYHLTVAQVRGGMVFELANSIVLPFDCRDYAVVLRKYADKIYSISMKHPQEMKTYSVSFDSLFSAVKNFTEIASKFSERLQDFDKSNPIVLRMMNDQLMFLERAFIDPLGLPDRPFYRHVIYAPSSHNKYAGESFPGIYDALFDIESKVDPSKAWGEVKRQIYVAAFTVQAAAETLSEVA

SMILES: O=C(O)C[C@H](Cc1ccccc1)C(=O)O [(S)-benzylsuccinic acid, reference compound]
- effect of inhibitor on the increase in fluorescence of Compound A with CPA ([1]; 100 μM inhibitor, 10 μM Compound A, 5 ng CPA): suppressed

SMILES: Cc1cc(=O)oc2cc(OP(=O)(N[C@@H](C)C(=O)N[C@@H](CCC(=O)O)C(=O)O)C(C)(C)C)ccc12 (stereo partly shown) [Compound 4MU-tSoul-AE]
- fluorescence change on incubation with PSMA [2]: the increase in fluorescence was not observed

SMILES: Cc1cc(=O)oc2cc(OP(=O)(NCC(=O)N[C@@H](CCC(=O)O)C(=O)O)C(C)(C)C)ccc12 (stereo partly shown) [Compound 4MU-tSoul-GE]
- fluorescence change on incubation with PSMA [2]: the increase in fluorescence was observed

SMILES: CCOP(=O)(N[C@@H](C)C(=O)N[C@@H](Cc1ccccc1)C(=O)O)Oc1ccc2c(C)cc(=O)oc2c1 (stereo partly shown) [Compound A]
- fluorescence change on incubation with CPA ([1]; 10 μM probe in PBS(-), 5 ng CPA activated by 1.5 μg trypsin, Ex/Em=355/460 nm): increased
- fluorescence change with only trypsin added [3]: a remarkable increase in fluorescence was not observed
- fluorescence change in the absence of enzyme (non-enzymatic degradation) [4]: gradually increased even slightly

SMILES: CCOP(=O)(N[C@@H](C)C(=O)N[C@@H](CCCNC(=N)N)C(=O)O)Oc1ccc2c(C)cc(=O)oc2c1 (stereo partly shown) [Compound B]
- fluorescence change on incubation with CPB ([5]; 37° C., 5 ng CPB): increased
- fluorescence change in the absence of enzyme (non-enzymatic degradation) [4]: gradually increased even slightly

SMILES: Cc1cc(=O)oc2cc(OP(=O)(N[C@@H](C)C(=O)N[C@@H](CCCNC(=N)N)C(=O)O)C(C)(C)C)ccc12 (stereo partly shown) [Compound C]
- fluorescence change on incubation with CPB ([5]; 37° C., 5 ng CPB): served as a substrate for CPB and showed the increase in fluorescence
- fluorescence change in the absence of enzyme (non-enzymatic degradation) [4]: no increase in fluorescence was observed

SMILES: C[C@H](NP(=O)(Oc1ccc2c(c1)Oc1cc(NCC(F)(F)F)ccc1C21OCc2ccccc21)C(C)(C)C)C(=O)N[C@@H](CCCNC(=N)N)C(=O)O (stereo partly shown) [HMRef-tSoul-AR]
- fluorescence increase by reaction with CPB ([5]; 1 μM probe in PBS(-), 30 μg CPB, 25° C., excitation 498 nm): 3320 times
- time stable in the absence of enzyme ([4]; 1 μM probe, buffer pH 7.4, 25° C., absorption change): at least 1 hour
- Km [6]: 50 µM
- Vmax [6]: 1.2e-08 M/s
- kcat [6]: 1.7 s⁻¹
- substrate recognition by CPM [7]: served as a substrate
- Km [7, 10]: 61 µM
- Vmax [7, 10]: 4e-08 M/s
- kcat [7, 10]: 1.0 s⁻¹
- fluorescence from MDCK cells over time ([8]; 10 μM probe in HBSS, Ex/Em=488/500-550 nm): an increase in fluorescence over time from the MDCK cells was observed
- generation of HMRef in external liquid of MDCK cells (UPLC) ([8]; 20 μM probe, HBSS, 37° C., 20 hours): HMRef was certainly generated
- fluorescence from tumor tissue as compared with normal tissue ([9]; 50 μM probe in PBS (1% DMSO), four breast cancer specimens): remarkable increase in fluorescence

SMILES: NC(N)=NCCSCC(CS)C(=O)O (stereo not shown) [MGTA, reference compound]
- effect of inhibitor on the increase in fluorescence of Compound B with CPB ([5]; 100 μM inhibitor, 10 μM Compound B, 5 ng CPB, 37° C.): suppressed
- effect of inhibitor on the increase in fluorescence of HMRef-tSoul-AR in MDCK cells ([8]; 10 μM inhibitor, 10 μM HMRef-tSoul-AR in HBSS): completely suppressed
- effect of inhibitor on the increase in fluorescence of HMRef-tSoul-AR in breast cancer specimens ([9]; 100 μM inhibitor, 50 μM HMRef-tSoul-AR): suppressed
